Measured values: patent US20250171459A1, “2-METHYL-4',5'-DIHYDROSPIRO[PIPERIDINE-4,7'-THIENO[2,3-C]PYRAN] DERIVATIVES AS INHIBITORS OF APOL1 AND METHODS OF USING SAME” (Vertex Pharmaceuticals Incorporated, priority 2022, published 2025)

Biological target: T1, APOL1 (Homo sapiens, UniProt O14791)
T1 sequence (O14791 1-398 S342G/I384M): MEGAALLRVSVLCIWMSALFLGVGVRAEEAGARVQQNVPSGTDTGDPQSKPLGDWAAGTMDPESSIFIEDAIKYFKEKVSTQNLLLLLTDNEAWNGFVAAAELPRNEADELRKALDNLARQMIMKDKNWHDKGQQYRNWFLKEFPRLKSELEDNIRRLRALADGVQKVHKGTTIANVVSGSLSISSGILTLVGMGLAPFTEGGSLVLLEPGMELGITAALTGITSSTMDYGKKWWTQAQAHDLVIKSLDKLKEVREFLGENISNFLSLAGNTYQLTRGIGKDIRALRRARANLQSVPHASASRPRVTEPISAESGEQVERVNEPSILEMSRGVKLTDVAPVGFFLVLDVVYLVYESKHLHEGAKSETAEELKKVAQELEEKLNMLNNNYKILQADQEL
Assay: MultiTox-Fluor Multiplex Cytotoxicity Assay in tet-inducible APOL1 T-REx-HEK293 cells (cell rescue, ratio of dead to live cells)
Assay type: cell-based
Conditions: tet-inducible transgenic APOL1 T-REx-HEK293 cell lines, 50 ng/mL tet, 24 hours; read-out: IP50 (i.e., IC50 for cell proliferation)
Outline: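 T-REx-HEK293 cells with tet-inducible APOL1 were treated with compound (10 μM top, 10-point 3-fold dilution, duplicate) plus 50 ng/mL tetracycline for 24 h at 37° C, in DMEM with 2% tet-free FBS. MultiTox-Fluor protease signals gave a dead/live ratio, normalized to no tet (100% viability) and tet alone (0%).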

SMILES | IC50 [µM]
CCc1cc2c(s1)CCO[C@@]21CCN(C[C@H]2C[C@@H](NC(=O)OCc3ccccc3Cl)C2)[C@@H](C)C1 [Compound 381] | 0.1 to 0.5
C[C@H]1C[C@@]2(CCN1Cc1cnn(CC(=O)N(C)C)c1)OCCc1c2sc(C(F)(F)F)c1CO [Compound 897] | < 0.1
C[C@H]1C[C@@]2(CCN1Cc1cn(C3CCOCC3)nn1)OCCc1cc(CC(F)F)sc12 [Compound 547] | < 0.1
CCc1cc2c(s1)CCO[C@@]21CCN(Cc2cnc(N[C@H]3CCC[C@H]3CO)nc2)[C@@H](C)C1 [Compound 219] | < 0.1
CCc1cc2c(s1)CCOC21CCN(Cc2cn(C(C)C(=O)NCC(C)O)nn2)CC1 (centres unmarked) [Compound 1119] | 0.5 to 1
C[C@H]1C[C@@]2(CCN1Cc1cnc(N3CCOCC3)nc1)OCCc1cc(Cl)sc12 [Compound 658] | < 0.1
CCc1cc2c(s1)CCO[C@@]21CCN(Cc2cn(CC3(O)CCOCC3)nn2)[C@@H](C)C1 [Compound 190] | < 0.1
COc1ccc(CN2CC[C@]3(C[C@@H]2C)OC[C@H](O)c2cc(Cl)sc23)cc1OCC(N)=O [Compound 772] | < 0.1
CCc1cc2c(s1)CCO[C@@]21CCN(CC2CN(C(=O)CS(=O)(=O)CC)C2)[C@@H](C)C1 [Compound 459] | < 0.1
C[C@H]1C[C@@]2(CCN1Cc1cccc(=O)[nH]1)OCCc1cc(CC(F)F)sc12 [Compound 570] | 0.1 to 0.5
CCc1cc2c(s1)CCO[C@@]21CCN(Cc2cn(CC3(O)COC3)nn2)[C@@H](C)C1 [Compound 146] | < 0.1
CCc1cc2c(s1)CCO[C@@]21CCN(C[C@H]2C[C@@H](NC(C)=O)C2)[C@@H](C)C1 [Compound 384] | 0.1 to 0.5
C[C@@H](CO)Cn1cc(CN2CC[C@]3(C[C@@H]2C)OCCc2c3sc(C(F)(F)F)c2CO)cn1 [Compound 908] | < 0.1
CCc1cc2c(s1)CCOC21CCN(Cc2ccc(NS(=O)(=O)C3CC3)nc2)CC1 [Compound 1069] | 0.1 to 0.5
CNC(=O)[C@@H](O)Cn1cc(CN2CC[C@]3(C[C@@H]2C)OC[C@@H](O)c2cc(C(F)(F)F)sc23)cn1 [Compound 997] | < 0.1
CCc1cc2c(s1)CCO[C@@]21CCN(C[C@H]2C[C@@H](NC(=O)CCN3CCCCC3)C2)[C@@H](C)C1 [Compound 322] | 0.1 to 0.5
C[C@H]1C[C@@]2(CCN1Cc1cn(-c3ncccn3)cn1)OCCc1cc(Cl)sc12 [Compound 650] | 0.1 to 0.5
C[C@H]1C[C@@]2(CCN1Cc1ccc(C(=O)N(C)C)cc1)OCCc1cc(Cl)sc12 [Compound 660] | 0.1 to 0.5
CCc1cc2c(s1)CCOC21CCN(Cc2cnn(C)c2)C(CC)C1 (centres unmarked) [Compound 1041, 2,2′-diethyl-1-((1-methyl-1H-pyrazol-4-yl)methyl)-6′,7′-dihydrospiro[piperidine-4,4′-thieno [3,2-c]pyran]] | < 0.1
CCc1cc2c(s1)CCO[C@@]21CCN(Cc2cn(Cc3nc(COC)no3)nn2)[C@@H](C)C1 [Compound 184] | < 0.1
C[C@H]1C[C@@]2(CCN1Cc1cnn(CCS(C)(=O)=O)c1)OCC(N1C(=O)c3ccccc3C1=O)c1cc(Cl)sc12 (stereo partly drawn) [Compound 853, 2-[(2′S, 7R)-2-chloro-2′-methyl-1′-[[1-(2-methylsulfonylethyl)pyrazol-4-yl]methyl]spiro[4,5-dihydrothieno[2,3-c]pyran-7,4′-piperidine]-4-yl]isoindoline-1,3-dione] | 0.1 to 0.5
CCc1cc2c(s1)CCOC21CCN(Cc2cn(CC(=O)NCCO)nn2)CC1 [Compound 1095] | 0.5 to 1
CC(=CC(O)Cn1cc(CN2CC[C@]3(C[C@@H]2C)OC[C@@H](O)c2cc(C(F)(F)F)sc23)cn1)C1CC1 (some centres unmarked) [Compound 980] | 0.1 to 0.5
CCc1cc2c(s1)CCO[C@@]21CCN(Cc2nc3ccccc3[nH]2)[C@@H](C)C1 [Compound 291] | 0.1 to 0.5
C[C@H]1C[C@@]2(CCN1Cc1cn(CCCS(C)(=O)=O)nn1)OC[C@](O)(C(F)F)c1cc(Cl)sc12 [Compound 839] | < 0.1
CC(O)CCN1CC[C@]2(C[C@@H]1C)OC[C@H](O)c1cc(Cl)sc12 (some centres unmarked) [Compound 785] | 0.5 to 1
CCc1cc2c(s1)CCO[C@@]21CCN(Cc2cnc(Cl)nc2)[C@@H](C)C1 [Compound 198, (2′S,4R)-1′-[(2-chloropyrimidin-5-yl)methyl]-2-ethyl-2′-methyl-spiro[6,7-dihydrothieno[3,2-c]pyran-4,4′-piperidine]] | 0.1 to 0.5

SMILES | IC50 [µM]
C[C@H]1C[C@@]2(CCN1Cc1cn(CCCS(C)(=O)=O)nn1)OCCc1cc(CC(F)F)sc12 [Compound 545] | < 0.1
COCc1cc2c(s1)[C@]1(CCN(Cc3cnn(CCS(C)(=O)=O)c3)[C@@H](C)C1)OCC2 [Compound 1017, (2′S, 7R)-2-(methoxymethyl)-2′-methyl-1′-[[1-(2-methylsulfonylethyl)pyrazol-4-yl]methyl]spiro[4,5-dihydrothieno[2,3-c]pyran-7,4′-piperidine]] | 0.1 to 0.5
CCc1cc2c(s1)CCOC21CCN(Cc2ccc(C(=O)NCCOCCO)nc2)CC1 [Compound 1063] | 0.1 to 0.5
CC(C)CN1CC[C@]2(C[C@@H]1C)OCCc1cc(CC(F)F)sc12 [Compound 581] | 0.1 to 0.5
CCOC(=O)C(C)(O)Cn1cc(CN2CC[C@]3(C[C@@H]2C)OCCc2c3sc(C(F)(F)F)c2CO)cn1 (stereo partly drawn) [Compound 988, Ethyl 2-hydroxy-3-[4-[[(2′S, 7R)-3-(hydroxymethyl)-2′-methyl-2-(trifluoromethyl)spiro[4,5-dihydrothieno[2,3-c]pyran-7,4′-piperidine]-1′-yl]methyl]pyrazol-1-yl]-2-methyl-propanoate] | < 0.1
Cn1cc(CN2CCC3(CC2)OCC(C)(C)c2sc(Cl)cc23)cn1 [Compound 1178, 2-chloro-7,7-dimethyl-1′-[(1-methylpyrazol-4-yl)methyl]spiro[6H-thieno[3,2-c]pyran-4,4′-piperidine]] | < 0.1
CCc1cc2c(s1)CCO[C@@]21CCN(Cc2cnc(NCC(O)C(F)(F)F)nc2)[C@@H](C)C1 (some centres unmarked) [Compound 231] | 0.1 to 0.5
C[C@H]1C[C@@]2(CCN1CCN1CCCC1=O)OCCc1cc(CC(F)F)sc12 [Compound 623] | 0.5 to 1
C[C@H]1C[C@@]2(CCN1CCO)OCCc1cc(CC(F)F)sc12 [Compound 599] | 0.1 to 0.5
CCc1cc2c(s1)CCO[C@@]21CCN(CC2CN(C(=O)CCCS(C)(=O)=O)C2)[C@@H](C)C1 [Compound 435] | < 0.1
C[C@H]1C[C@@]2(CCN1Cc1cnn(CC(O)C3(O)CCC3)c1)OCCc1c2sc(C(F)(F)F)c1CO (some centres unmarked) [Compound 940] | < 0.1
CCc1cc2c(s1)CCO[C@@]21CCN(C[C@H]2C[C@@H](NC(=O)c3cnc(C)s3)C2)[C@@H](C)C1 [Compound 320] | < 0.1
C[C@H]1C[C@@]2(CCN1Cc1ccc3c(c1)n(C)c(=O)n3C)OCCc1cc(CC(F)F)sc12 [Compound 564] | < 0.1
C[C@H]1C[C@@]2(CCN1Cc1cnn(CC(O)CC3(O)CCC3)c1)OCCc1c2sc(C(F)(F)F)c1CO (some centres unmarked) [Compound 961] | < 0.1
CC(O)Cn1cc(CN2CC[C@]3(C[C@@H]2C)OCCc2cc(CC(F)F)sc23)nn1 (stereo partly drawn) [Compound 543, 1-[4-[[(2′S, 7R)-2-(2,2-difluoroethyl)-2′-methyl-spiro[4,5-dihydrothieno[2,3-c]pyran-7,4′-piperidine]-1′-yl]methyl]triazol-1-yl]propan-2-ol] | < 0.1
CCc1cc2c(s1)CCO[C@@]21CCN(Cc2cn(CCOc3nonc3C)nn2)[C@@H](C)C1 [Compound 185] | < 0.1
CCc1cc2c(s1)CCOC21CCN(Cc2cn(CC(O)C(C)(C)O)nn2)CC1 (centres unmarked) [Compound 1079, 1-(4-((2′-ethyl-6′,7′-dihydrospiro[piperidine-4,4′-thieno[3,2-c]pyran]-1-yl)methyl)-1H-1,2,3-triazol-1-yl)-3-methylbutane-2,3-diol] | 0.1 to 0.5
CCc1cc2c(s1)CCO[C@@]21CCN(Cc2cn(CCOC)nn2)[C@@H](C)C1 [Compound 129] | 0.1 to 0.5
CCc1cc2c(s1)CCO[C@@]21CCN(Cc2cn(CCOCCOCCO)nn2)[C@@H](C)C1 [Compound 195] | 0.1 to 0.5
C[C@H]1C[C@@]2(CCN1Cc1cnn(CC3(O)CCCOC3)c1)OCCc1c2sc(C(F)(F)F)c1CO (some centres unmarked) [Compound 952] | < 0.1
CCc1cc2c(s1)CCOC21CCN(Cc2ccc(C(=O)NC3CCCC3=O)nc2)CC1 (centres unmarked) [Compound 1058] | 0.1 to 0.5
Cc1cncc(CN2CC[C@]3(C[C@@H]2C)OC[C@H](O)c2cc(Cl)sc23)c1 [Compound 809] | 0.1 to 0.5
CCc1cc2c(s1)CCOC21CCN(Cc2ccc(C(=O)N3CC(CO)C3)nc2)CC1 [Compound 1050] | < 0.1
C[C@H]1C[C@@]2(CCN1Cc1cnn(CCS(C)(=O)=O)c1)OCC(C#N)c1cc(Cl)sc12 (stereo partly drawn) [Compound 856, (2′S, 7R)-2-chloro-2′-methyl-1′-[[1-(2-methylsulfonylethyl)pyrazol-4-yl]methyl]spiro[4,5-dihydrothieno[2,3-c]pyran-7,4′-piperidine]-4-carbonitrile] | < 0.1
CCc1cc2c(s1)CCO[C@@]21CCN(C[C@H]2C[C@@H](NC(=O)C3(C)COC3)C2)[C@@H](C)C1 [Compound 359] | 0.1 to 0.5
CNC(=O)[C@@H](O)CN1CC[C@]2(C[C@@H]1C)OCCc1cc(C(F)(F)F)sc12 [Compound 869, (2S)-2-hydroxy-N-methyl-3-[(2′S, 7R)-2′-methyl-2-(trifluoromethyl)spiro[4,5-dihydrothieno[2,3-c]pyran-7,4′-piperidine]-1′-yl]propanamide] | 0.5 to 1
